Source: PubChem BioAssay (NCI)
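Cultured in 96-well plates, cells were exposed to test compound for 48 hours across five concentrations. Definition used: TGI = concentration required for complete inhibition of growth.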

Legend:
Test in all cases: NCI tumour cell line growth inhibition, 48 h
786-0 renal = test system: 786-0 renal
A498 renal = test system: A498 renal
A549 NSCLC = test system: A549 NSCLC
ACHN renal = test system: ACHN renal
CAKI-1 renal = test system: CAKI-1 renal
COLO 205 colon = test system: COLO 205 colon
DLD-1 colon = test system: DLD-1 colon
DMS 114 small cell lung = test system: DMS 114 small cell lung
DMS 273 small cell lung = test system: DMS 273 small cell lung
EKVX NSCLC = test system: EKVX NSCLC
HCC-2998 colon = test system: HCC-2998 colon
HCT-116 colon = test system: HCT-116 colon
HCT-15 colon = test system: HCT-15 colon
HL-60(TB) leukemia = test system: HL-60(TB) leukemia
HOP-18 NSCLC = test system: HOP-18 NSCLC
HOP-62 NSCLC = test system: HOP-62 NSCLC
HOP-92 NSCLC = test system: HOP-92 NSCLC
HT29 colon = test system: HT29 colon
IGROV1 ovarian = test system: IGROV1 ovarian
K-562 leukemia = test system: K-562 leukemia
KM12 colon = test system: KM12 colon
KM20L2 colon = test system: KM20L2 colon
LXFL 529 NSCLC = test system: LXFL 529 NSCLC
M14 melanoma = test system: M14 melanoma
M19-MEL melanoma = test system: M19-MEL melanoma
MALME-3M melanoma = test system: MALME-3M melanoma
MOLT-4 leukemia = test system: MOLT-4 leukemia
NCI-H226 lung = test system: NCI-H226 lung
NCI-H23 lung = test system: NCI-H23 lung
NCI-H460 lung = test system: NCI-H460 lung
NCI-H522 lung = test system: NCI-H522 lung
OVCAR-3 ovarian = test system: OVCAR-3 ovarian
OVCAR-4 ovarian = test system: OVCAR-4 ovarian
OVCAR-5 ovarian = test system: OVCAR-5 ovarian
OVCAR-8 ovarian = test system: OVCAR-8 ovarian
RPMI-8226 leukemia = test system: RPMI-8226 leukemia
RXF 393 renal = test system: RXF 393 renal
SF-268 CNS = test system: SF-268 CNS
SF-295 CNS = test system: SF-295 CNS
SF-539 CNS = test system: SF-539 CNS
SK-MEL-2 melanoma = test system: SK-MEL-2 melanoma
SK-MEL-5 melanoma = test system: SK-MEL-5 melanoma
SK-OV-3 ovarian = test system: SK-OV-3 ovarian
SN12C renal = test system: SN12C renal
SNB-19 CNS = test system: SNB-19 CNS
SNB-75 CNS = test system: SNB-75 CNS
SNB-78 CNS = test system: SNB-78 CNS
SR leukemia = test system: SR leukemia
SW-620 colon = test system: SW-620 colon
TK-10 renal = test system: TK-10 renal
U251 CNS = test system: U251 CNS
UACC-257 melanoma = test system: UACC-257 melanoma
UACC-62 melanoma = test system: UACC-62 melanoma
UO-31 renal = test system: UO-31 renal
XF 498 CNS = test system: XF 498 CNS
CCRF-CEM leukemia = test system: CCRF-CEM leukemia
LOX IMVI melanoma = test system: LOX IMVI melanoma
SK-MEL-28 melanoma = test system: SK-MEL-28 melanoma

For `CN1CN(C2OC(CO)C(O)C2O)c2nc(N)[nH]c(=O)c21` (centres undefined), which TGI (786-0 renal) is on record?
The TGI was greater than 100 µM.

And the TGI (A498 renal)?
Its TGI is greater than 100 µM.

What about the TGI (A549 NSCLC) of the same compound?
The TGI was greater than 100 µM.

And the TGI (ACHN renal)?
Its TGI is greater than 100 µM.

And the TGI (CAKI-1 renal)?
The TGI was greater than 100 µM.

And the TGI (COLO 205 colon)?
The TGI was greater than 100 µM.

And the TGI (DLD-1 colon)?
Its TGI is greater than 100 µM.

What about the TGI (DMS 114 small cell lung) of the same compound?
Its TGI is greater than 100 µM.

What about the TGI (DMS 273 small cell lung) of the same compound?
The TGI was greater than 100 µM.

What about the TGI (EKVX NSCLC) of the same compound?
The TGI was greater than 100 µM.

What about the TGI (HCC-2998 colon) of the same compound?
The TGI was greater than 100 µM.

And the TGI (HCT-116 colon)?
Its TGI is greater than 100 µM.

What about the TGI (HCT-15 colon) of the same compound?
Its TGI is greater than 100 µM.

And the TGI (HL-60(TB) leukemia)?
Its TGI is greater than 100 µM.

And the TGI (HOP-18 NSCLC)?
Its TGI is greater than 100 µM.

And the TGI (HOP-62 NSCLC)?
Its TGI is greater than 100 µM.

What about the TGI (HOP-92 NSCLC) of the same compound?
Its TGI is greater than 100 µM.

And the TGI (HT29 colon)?
The TGI was greater than 100 µM.

And the TGI (IGROV1 ovarian)?
Its TGI is greater than 100 µM.

And the TGI (K-562 leukemia)?
Its TGI is greater than 100 µM.

And the TGI (KM12 colon)?
Its TGI is greater than 100 µM.

What about the TGI (KM20L2 colon) of the same compound?
Its TGI is greater than 100 µM.

What about the TGI (LXFL 529 NSCLC) of the same compound?
Its TGI is greater than 100 µM.

And the TGI (M14 melanoma)?
The TGI was greater than 100 µM.

What about the TGI (M19-MEL melanoma) of the same compound?
The TGI was greater than 100 µM.

And the TGI (MALME-3M melanoma)?
The TGI was greater than 100 µM.

And the TGI (MOLT-4 leukemia)?
Its TGI is greater than 100 µM.

And the TGI (NCI-H226 lung)?
Its TGI is greater than 100 µM.

And the TGI (NCI-H23 lung)?
The TGI was greater than 100 µM.

What about the TGI (NCI-H460 lung) of the same compound?
Its TGI is greater than 100 µM.

And the TGI (NCI-H522 lung)?
Its TGI is 38.5 µM.

And the TGI (OVCAR-3 ovarian)?
The TGI was greater than 100 µM.

And the TGI (OVCAR-4 ovarian)?
The TGI was greater than 100 µM.

And the TGI (OVCAR-5 ovarian)?
Its TGI is greater than 100 µM.

And the TGI (OVCAR-8 ovarian)?
The TGI was greater than 100 µM.

And the TGI (RPMI-8226 leukemia)?
Its TGI is greater than 100 µM.

And the TGI (RXF 393 renal)?
The TGI was greater than 100 µM.

And the TGI (SF-268 CNS)?
The TGI was greater than 100 µM.

What about the TGI (SF-295 CNS) of the same compound?
Its TGI is greater than 100 µM.

What about the TGI (SF-539 CNS) of the same compound?
The TGI was greater than 100 µM.

And the TGI (SK-MEL-2 melanoma)?
The TGI was greater than 100 µM.

What about the TGI (SK-MEL-5 melanoma) of the same compound?
The TGI was greater than 100 µM.

What about the TGI (SK-OV-3 ovarian) of the same compound?
The TGI was greater than 100 µM.

And the TGI (SN12C renal)?
Its TGI is greater than 100 µM.

What about the TGI (SNB-19 CNS) of the same compound?
Its TGI is greater than 100 µM.

And the TGI (SNB-75 CNS)?
Its TGI is greater than 100 µM.

And the TGI (SNB-78 CNS)?
The TGI was greater than 100 µM.

And the TGI (SR leukemia)?
The TGI was greater than 100 µM.

What about the TGI (SW-620 colon) of the same compound?
The TGI was greater than 100 µM.

What about the TGI (TK-10 renal) of the same compound?
The TGI was greater than 100 µM.

And the TGI (U251 CNS)?
Its TGI is greater than 100 µM.

What about the TGI (UACC-257 melanoma) of the same compound?
Its TGI is greater than 100 µM.

What about the TGI (UACC-62 melanoma) of the same compound?
Its TGI is greater than 100 µM.

And the TGI (UO-31 renal)?
Its TGI is greater than 100 µM.

What about the TGI (XF 498 CNS) of the same compound?
Its TGI is greater than 100 µM.

With `CCOC(=O)CC1COc2ccc3c(c21)OCO3` (centres undefined) as the compound, how does the TGI (786-0 renal) read?
Its TGI is greater than 100 µM.

And the TGI (A498 renal)?
Its TGI is greater than 100 µM.

What about the TGI (A549 NSCLC) of the same compound?
Its TGI is greater than 100 µM.

And the TGI (ACHN renal)?
The TGI was greater than 100 µM.

What about the TGI (CCRF-CEM leukemia) of the same compound?
Its TGI is greater than 100 µM.

And the TGI (COLO 205 colon)?
The TGI was greater than 100 µM.

What about the TGI (DLD-1 colon) of the same compound?
Its TGI is greater than 100 µM.

What about the TGI (DMS 114 small cell lung) of the same compound?
Its TGI is greater than 100 µM.

And the TGI (DMS 273 small cell lung)?
The TGI was greater than 100 µM.

What about the TGI (EKVX NSCLC) of the same compound?
Its TGI is greater than 100 µM.

And the TGI (HCC-2998 colon)?
The TGI was greater than 100 µM.

And the TGI (HCT-116 colon)?
Its TGI is greater than 100 µM.

And the TGI (HCT-15 colon)?
The TGI was greater than 100 µM.

What about the TGI (HL-60(TB) leukemia) of the same compound?
The TGI was greater than 100 µM.

What about the TGI (HOP-18 NSCLC) of the same compound?
Its TGI is greater than 100 µM.

What about the TGI (HOP-62 NSCLC) of the same compound?
Its TGI is greater than 100 µM.

And the TGI (HOP-92 NSCLC)?
The TGI was greater than 100 µM.

And the TGI (HT29 colon)?
The TGI was greater than 100 µM.

And the TGI (IGROV1 ovarian)?
Its TGI is greater than 100 µM.

What about the TGI (K-562 leukemia) of the same compound?
Its TGI is greater than 100 µM.

What about the TGI (KM12 colon) of the same compound?
The TGI was greater than 100 µM.

And the TGI (KM20L2 colon)?
Its TGI is greater than 100 µM.

And the TGI (LOX IMVI melanoma)?
The TGI was greater than 100 µM.

What about the TGI (LXFL 529 NSCLC) of the same compound?
Its TGI is greater than 100 µM.

And the TGI (M14 melanoma)?
Its TGI is greater than 100 µM.

What about the TGI (M19-MEL melanoma) of the same compound?
Its TGI is greater than 100 µM.

And the TGI (MALME-3M melanoma)?
The TGI was greater than 100 µM.

What about the TGI (MOLT-4 leukemia) of the same compound?
Its TGI is greater than 100 µM.

What about the TGI (NCI-H226 lung) of the same compound?
Its TGI is greater than 100 µM.

And the TGI (NCI-H23 lung)?
The TGI was greater than 100 µM.

And the TGI (NCI-H460 lung)?
The TGI was greater than 100 µM.

And the TGI (OVCAR-3 ovarian)?
Its TGI is greater than 100 µM.

And the TGI (OVCAR-4 ovarian)?
The TGI was greater than 100 µM.

What about the TGI (OVCAR-5 ovarian) of the same compound?
The TGI was greater than 100 µM.

And the TGI (OVCAR-8 ovarian)?
Its TGI is greater than 100 µM.

And the TGI (RPMI-8226 leukemia)?
The TGI was greater than 100 µM.

What about the TGI (SF-295 CNS) of the same compound?
The TGI was greater than 100 µM.

And the TGI (SF-539 CNS)?
Its TGI is greater than 100 µM.

And the TGI (SK-MEL-2 melanoma)?
The TGI was greater than 100 µM.

And the TGI (SK-MEL-28 melanoma)?
Its TGI is greater than 100 µM.

What about the TGI (SK-MEL-5 melanoma) of the same compound?
Its TGI is greater than 100 µM.

And the TGI (SK-OV-3 ovarian)?
The TGI was greater than 100 µM.

And the TGI (SN12C renal)?
Its TGI is greater than 100 µM.

What about the TGI (SNB-19 CNS) of the same compound?
The TGI was greater than 100 µM.

And the TGI (SNB-75 CNS)?
Its TGI is greater than 100 µM.

And the TGI (SNB-78 CNS)?
The TGI was greater than 100 µM.

And the TGI (SR leukemia)?
The TGI was greater than 100 µM.

And the TGI (SW-620 colon)?
Its TGI is greater than 100 µM.

What about the TGI (TK-10 renal) of the same compound?
The TGI was greater than 100 µM.

And the TGI (U251 CNS)?
The TGI was greater than 100 µM.

And the TGI (UACC-257 melanoma)?
Its TGI is greater than 100 µM.

What about the TGI (UACC-62 melanoma) of the same compound?
The TGI was greater than 100 µM.

And the TGI (UO-31 renal)?
The TGI was greater than 100 µM.

What about the TGI (XF 498 CNS) of the same compound?
Its TGI is greater than 100 µM.
